Measured values taken from paper PMC8350397, “GSK137, a potent small-molecule BCL6 inhibitor with in vivo activity, suppresses antibody responses in mice” (The Journal of Biological Chemistry, 2021).

Key:
[1] = target: T1, human BCL6 BTB-POZ domain (nuclear receptor co-repressor 1 peptide) (Homo sapiens, UniProt P41182, C67R/C84N/C8Q); assay: BCL6 TR-FRET assay, NCOR peptide displacement; type: binding; details: NCOR1 peptide, read-out: pIC50 Human TR-FRET nuclear receptor co-repressor 1 (converted)
T1 construct: BCL6-Flag-6H-Avi (5-129) C8Q, C67R, C84N proteins; Flag (C); 6H (His6) (C); made in house; host or cells: E. coli
Protocol: Human, mouse and rat BCL6-Flag-6H-Avi (5-129) C8Q, C67R, C84N proteins were expressed in E. coli according to standard procedures and purified on Ni-NTA, followed by ion exchange on a Source 30Q column and size exclusion on an Superdex 200 column in a buffer of 20 mM Tris, 250 mM NaCl, 5 mM DTT, 5% glycerol, pH 8.5. All protein purities were estimated to be >90% by SDS-PAGE and the expected masses were confirmed by MS analysis. For TR-FRET assay protein was enzymatically biotinylated by treatment of protein at 100 µM with a 2 fold molar excess of biotin in the presence of 2 mM ATP and 1 µM BirA enzyme in a buffer of 50 mM bicine pH 8.3, 10 mM MgCl2 at 30 °C for 1 hour, followed by extensivedialysis against 50 mM Tris-Cl pH 8.0, 100 mM NaCl, 1 mM DTT using a 3.5 kDa cut-off membrane. Biotinylation was confirmed by MS analysis and concentration was determined by Bradford assay, after which protein was stored in aliquots at -80 °C.
Acceptor-labelled SMRT peptide H2N-[…](D2)-OH was dissolved in water by mass to give a 500 µM stock solution which was stored at -20 °C. Acceptor-labelled NCOR peptide H2N-[…](Alexa Fluor 647)-OH and acceptor-labelled BCOR peptide H2N-[…](Alexa Fluor 647)-OH were dissolved to a nominal concentration of 1 mM in DMSO, and stock solution concentration was determined by absorbance at 650 nm using an extinction coefficient of 270,000 M-1cm^-1. […]

[2] = Chromatographic log D / property forecast index; type: physicochemical
Permeability (Papp) = type: in vitro ADME; details: not told
[3] = test system: TNP-specific IgM and IgG responses; assay: TNP-KLH immunization model, serum anti-TNP antibodies; type: in vivo, mouse
Protocol: (§1) Male CD1 mice (30–40 g, 8–9 weeks of age) were randomized into study treatment groups, housed individually and allowed to acclimatize under standard laboratory conditions for a minimum of 5 days prior to commencement of the study. Mice received food and water ad libitum. The experiment was performed in a certified dedicated in vivo experimental laboratory at the GlaxoSmithKline Medicines Research Centre, Stevenage, United Kingdom. The four treatment groups were (1) unimmunized and untreated (naive group) (n = 4); (2) intraperitoneal vehicle (n = 13), (3) GSK137 15 mg/kg (n = 14), and (4) GSK137 30 mg/kg (n = 14). Groups (2) to (4) were given intraperitoneal immunization with TNP–KLH (100 μg) on day 0, vehicle was 1% methylcellulose in water + 0.1% sodium lauryl sulphate, and compound or vehicle was given to groups (2) to (4) by oral gavage three times per day from day −1 to day +12. Blood samples were collected by tail vein for measurement of compound, IgM and IgG levels on days 0, 5, 8, and 12 ahead of immunization/first daily dose. On day 8, blood samples were also taken (n = 7) at 0.5, 1.5, 3, 5, or 7 h after first daily dose. On day 12, spleens were collected, weighed, and placed into Dulbecco's modified Eagle's medium on wet ice for analysis by flow cytometry.
For antibody measurements, TNP–bovine serum albumin–coated plates were blocked, and then, standards or serum samples diluted 1:1000 or 1:2500 were incubated for 2 h at room temperature before biotinylated antimouse IgG or IgM antibodies were allowed to bind for 1 h at room temperature and detected using streptavidin-bound horseradish peroxidase incubated for 30 min, followed by the addition of 3,3′,5,5′-tetramethylbenzidine substrate for 15 min. The reaction was stopped, and the plates read at 450 nm by spectrophotometry. Plates were washed between each incubation step to remove unbound reagent. Data analysis was carried out in GraphPad Prism 5 (GraphPad Software, Inc) software using a four-parameter logistic fit of the standards response.

[4] = Tolerability in the immunization model (body weight, signs of toxicity, cytokines); type: in vivo, mouse
Protocol: as §1
To determine cytokine and chemokine levels plasma samples were analysed by electrochemiluminescence assay using a custom mouse multiplex kit (K15355K-4, Meso Scale Diagnostics (MSD), Rockville, MD, USA) to measure IFNγ, IL-6, IL-10, TNF, MCP-1, KC, IL-12, IL1b, IL-13 and IL17a according to the manufacturer’s protocol. Plates were read using an MSD Sector Imager 6000 and analysed with Discovery workbench software v4.0.11, cytokine data were back-fitted to the MSD standard curve.

Cc1ncccc1[C@H]1C[C@@H](c2cccc3nc(N)ccc23)Nc2c(F)cnn21 [GSK137, 5-((5S,7R)-3-Fluoro-7-(2-methylpyridin-3-yl)-4,5,6,7-tetrahydropyrazolo[1,5-a]pyrimidin-5-yl)quinolin-2-amine]
IC50 [1]: 0.0251 µM
chromatographic logD ([2]; determined chromatographically, read-out: Chrom LogD): 2.3
PFI (property forecast index) ([2]; log D modified for the number of aromatic rings): 6.3
Papp (Permeability (Papp)): 8.6 ×10⁻⁶ cm/s
reduction of mean TNP-specific IgM levels vs vehicle ([3]; 15 mg/kg orally TID, day 12, p = 0.0027): 43%
reduction of mean TNP-specific IgG levels vs vehicle ([3]; 15 mg/kg orally TID, day 12, p = 0.0056): 58%
reduction of mean TNP-specific IgM levels vs vehicle ([3]; 30 mg/kg orally TID, day 12, p < 0.0001): 58%
reduction of mean TNP-specific IgG levels vs vehicle ([3]; 30 mg/kg orally TID, day 12, p = 0.0023): 66%
inhibition of TNP-specific IgM level ([3]; 15 and 30 mg/kg, day 5 or day 8): did not inhibit
inhibition of serum TNP-specific IgG levels ([3]; 15 and 30 mg/kg, day 8): did not inhibit
mouse weights vs vehicle group ([4]; 15 and 30 mg/kg orally TID, over the experiment): did not vary significantly
overt signs of toxicity ([4]; at the doses used (15 and 30 mg/kg)): no overt signs of toxicity
levels of a panel of cytokines vs vehicle ([4]; mouse, in vivo): either undetectable or, if detectable, did not differ significantly
